Tests used:
Assay type in all cases: functional
HOP-62 = experiment: Growth inhibition of human HOP62 cells assessed as cell growth at 0.01 uM incubated for 48 hrs by sulforhodamine B assay relative to control; details: HOP-62, 48 h, read-out: Activity
SNB-75 = experiment: Growth inhibition of human SNB75 cells assessed as cell growth at 1 uM incubated for 48 hrs by sulforhodamine B assay relative to control; details: SNB-75, 48 h, read-out: Activity
MDA-MB-231 = experiment: Growth inhibition of human MDA-MB-231 cells assessed as cell growth at 100 uM incubated for 48 hrs by sulforhodamine B assay relative to control; details: MDA-MB-231, 48 h, read-out: Activity
NCI-H226 = experiment: Growth inhibition of human NCI-H226 cells assessed as cell growth at 1 uM incubated for 48 hrs by sulforhodamine B assay relative to control; details: NCI-H226, 48 h, read-out: Activity
OVCAR-3 = experiment: Growth inhibition of human OVCAR3 cells assessed as cell growth at 10 uM incubated for 48 hrs by sulforhodamine B assay relative to control; details: OVCAR-3, 48 h, read-out: Activity
MCF7 = experiment: Growth inhibition of human MCF7 cells assessed as cell growth at 100 uM incubated for 48 hrs by sulforhodamine B assay relative to control; details: MCF7, 48 h, read-out: Activity
NCI-H522 = experiment: Growth inhibition of human NCI-H522 cells assessed as cell growth at 1 uM incubated for 48 hrs by sulforhodamine B assay relative to control; details: NCI-H522, 48 h, read-out: Activity
HL-60(TB) = experiment: Growth inhibition of human HL-60(TB) cells assessed as cell growth at 0.1 uM incubated for 48 hrs by sulforhodamine B assay relative to control; details: HL-60, 48 h, read-out: Activity
SK-MEL-2 = experiment: Growth inhibition of human SK-MEL-2 cells assessed as cell growth at 1 uM incubated for 48 hrs by sulforhodamine B assay relative to control; details: SK-MEL-2, 48 h, read-out: Activity
Hs-578T [1] = experiment: Growth inhibition of human Hs 578T cells assessed as cell growth at 0.1 uM incubated for 48 hrs by sulforhodamine B assay relative to control; details: read-out: Activity
786-0 = experiment: Growth inhibition of human 786-0 cells assessed as cell growth at 10 uM incubated for 48 hrs by sulforhodamine B assay relative to control; details: 786-0, 48 h, read-out: Activity
EKVX = experiment: Growth inhibition of human EKVX cells assessed as cell growth at 0.01 uM incubated for 48 hrs by sulforhodamine B assay relative to control; details: read-out: Activity
RXF 393 [2] = experiment: Growth inhibition of human RXF393 cells assessed as cell growth at 10 uM incubated for 48 hrs by sulforhodamine B assay relative to control; details: RXF 393, 48 h, read-out: Activity
CCRF-CEM [3] = experiment: Growth inhibition of human CCRF-CEM cells assessed as cell growth at 100 uM incubated for 48 hrs by sulforhodamine B assay relative to control; details: read-out: Activity
RXF 393 [4] = experiment: Growth inhibition of human RXF393 cells assessed as cell growth at 0.1 uM incubated for 48 hrs by sulforhodamine B assay relative to control; details: RXF 393, 48 h, read-out: Activity
UACC-257 = experiment: Growth inhibition of human UACC257 cells assessed as cell growth at 0.01 uM incubated for 48 hrs by sulforhodamine B assay relative to control; details: UACC-257, 48 h, read-out: Activity
RXF 393 [5] = experiment: Growth inhibition of human RXF393 cells assessed as cell growth at 0.03 uM incubated for 48 hrs by sulforhodamine B assay relative to control; details: RXF 393, 48 h, read-out: Activity
T47D = experiment: Growth inhibition of human T47D cells assessed as cell growth at 30 uM incubated for 48 hrs by sulforhodamine B assay relative to control; details: read-out: Activity
U-251 = experiment: Growth inhibition of human U251 cells assessed as cell growth at 0.03 uM incubated for 48 hrs by sulforhodamine B assay relative to control; details: U-251, 48 h, read-out: Activity
SK-MEL-5 = experiment: Growth inhibition of human SK-MEL-5 cells assessed as cell growth at 3 uM incubated for 48 hrs by sulforhodamine B assay relative to control; details: SK-MEL-5, 48 h, read-out: Activity
Hs-578T [6] = experiment: Growth inhibition of human Hs 578T cells assessed as cell growth at 0.3 uM incubated for 48 hrs by sulforhodamine B assay relative to control; details: read-out: Activity
CCRF-CEM [7] = experiment: Growth inhibition of human CCRF-CEM cells assessed as cell growth at 30 uM incubated for 48 hrs by sulforhodamine B assay relative to control; details: read-out: Activity
MDA-MB-435 = experiment: Growth inhibition of human MDA-MB-435 cells assessed as cell growth at 0.3 uM incubated for 48 hrs by sulforhodamine B assay relative to control; details: MDA-MB-435, 48 h, read-out: Activity
TK-10 = experiment: Growth inhibition of human TK10 cells assessed as cell growth at 0.3 uM incubated for 48 hrs by sulforhodamine B assay relative to control; details: TK-10, 48 h, read-out: Activity
PC-3 = experiment: Growth inhibition of human PC3 cells assessed as cell growth at 0.3 uM incubated for 48 hrs by sulforhodamine B assay relative to control; details: PC-3, 48 h, read-out: Activity
OVCAR-5 = experiment: Growth inhibition of human OVCAR5 cells assessed as cell growth at 30 uM incubated for 48 hrs by sulforhodamine B assay relative to control; details: OVCAR-5, 48 h, read-out: Activity
SK-MEL-28 = experiment: Growth inhibition of human SK-MEL-28 cells assessed as cell growth at 3 uM incubated for 48 hrs by sulforhodamine B assay relative to control; details: SK-MEL-28, 48 h, read-out: Activity
SR = experiment: Growth inhibition of human SR cells assessed as cell growth at 0.3 uM incubated for 48 hrs by sulforhodamine B assay relative to control; details: read-out: Activity
SK-OV-3 = experiment: Growth inhibition of human SKOV3 cells assessed as cell growth at 0.3 uM incubated for 48 hrs by sulforhodamine B assay relative to control; details: SK-OV-3, 48 h, read-out: Activity
M14 = experiment: Growth inhibition of human M14 cells assessed as cell growth at 30 uM incubated for 48 hrs by sulforhodamine B assay relative to control; details: M14, 48 h, read-out: Activity
DU-145 [8] = experiment: Growth inhibition of human DU145 cells assessed as cell growth at 0.03 uM incubated for 48 hrs by sulforhodamine B assay relative to control; details: DU-145, 48 h, read-out: Activity
RXF 393 [9] = experiment: Growth inhibition of human RXF393 cells assessed as cell growth at 0.3 uM incubated for 48 hrs by sulforhodamine B assay relative to control; details: RXF 393, 48 h, read-out: Activity
DU-145 [10] = experiment: Growth inhibition of human DU145 cells assessed as cell growth at 30 uM incubated for 48 hrs by sulforhodamine B assay relative to control; details: DU-145, 48 h, read-out: Activity
SNB-19 = experiment: Growth inhibition of human SNB19 cells assessed as cell growth at 3 uM incubated for 48 hrs by sulforhodamine B assay relative to control; details: SNB-19, 48 h, read-out: Activity

| SMILES | growth at 0.01 µM (HOP-62) | growth at 1 µM (SNB-75) | growth at 100 µM (MDA-MB-231) | growth at 1 µM (NCI-H226) | growth at 10 µM (OVCAR-3) | growth at 100 µM (MCF7) | growth at 1 µM (NCI-H522) | growth at 0.1 µM (HL-60(TB)) | growth at 1 µM (SK-MEL-2) | growth at 0.1 µM (Hs-578T [1]) | growth at 10 µM (786-0) | growth at 0.01 µM (EKVX) | growth at 10 µM (RXF 393 [2]) | growth at 100 µM (CCRF-CEM [3]) | growth at 0.1 µM (RXF 393 [4]) | growth at 0.01 µM (UACC-257) | growth at 0.03 µM (RXF 393 [5]) | growth at 30 µM (T47D) | growth at 0.03 µM (U-251) | growth at 3 µM (SK-MEL-5) | other results |
| --- | --- | --- | --- | --- | --- | --- | --- | --- | --- | --- | --- | --- | --- | --- | --- | --- | --- | --- | --- | --- | --- |
| COc1cc2cc(Oc3ccc(NC(=O)Nc4ccc(Cl)c(Cl)c4)cc3)c(C)nc2cc1OC | 102% | 83% | -100% | 106% | -25% | -50% | 68% | 109% | 121% | 99% | 22% | 94% | 19% | -26% | 111% | 97% | – | – | – | – | – |
| COc1cc2cc(Oc3ccc(NC(=O)Nc4ccc(Cl)c(C(F)(F)F)c4)cc3)c(C)nc2cc1OC | – | – | – | – | – | – | – | – | – | – | – | – | – | – | – | – | 104% | -30% | 97% | -20% | growth at 0.3 µM (Hs-578T [6]): 84%; growth at 30 µM (CCRF-CEM [7]): -38%; growth at 0.3 µM (MDA-MB-435): 91%; growth at 0.3 µM (TK-10): 100%; growth at 0.3 µM (PC-3): 83%; growth at 30 µM (OVCAR-5): -81%; growth at 3 µM (SK-MEL-28): 27%; growth at 0.3 µM (SR): 91%; growth at 0.3 µM (SK-OV-3): 103%; growth at 30 µM (M14): -70%; growth at 0.03 µM (DU-145 [8]): 96%; growth at 0.3 µM (RXF 393 [9]): 113%; growth at 30 µM (DU-145 [10]): -70%; growth at 3 µM (SNB-19): 24% |
| COc1cc2cc(Oc3ccc(NC(=O)Nc4cc(C(F)(F)F)cc(C(F)(F)F)c4)cc3)c(C)nc2cc1OC | 88% | 75% | -83% | 88% | -90% | -73% | 63% | 84% | 85% | 109% | -90% | 89% | -44% | -40% | 99% | 104% | – | – | – | – | – |
| Cc1nc2cc(O)c(O)cc2cc1Oc1ccc(NC(=O)Nc2ccc(Cl)c(Cl)c2)cc1 | – | – | – | – | – | – | – | – | – | – | – | – | – | – | – | – | 96% | 10% | 94% | 85% | growth at 0.3 µM (Hs-578T [6]): 91%; growth at 30 µM (CCRF-CEM [7]): -16%; growth at 0.3 µM (MDA-MB-435): 90%; growth at 0.3 µM (TK-10): 98%; growth at 0.3 µM (PC-3): 97%; growth at 30 µM (OVCAR-5): -6%; growth at 3 µM (SK-MEL-28): 92%; growth at 0.3 µM (SR): 98%; growth at 0.3 µM (SK-OV-3): 108%; growth at 30 µM (M14): -51%; growth at 0.03 µM (DU-145 [8]): 111%; growth at 0.3 µM (RXF 393 [9]): 103%; growth at 30 µM (DU-145 [10]): -10%; growth at 3 µM (SNB-19): 96% |

Reference: ChEMBL document CHEMBL3994622, “Design and synthesis of new RAF kinase-inhibiting antiproliferative quinoline derivatives. Part 2: Diarylurea derivatives” (Eur J Med Chem, 2017)
